Among the test systems are SF-539; RPMI-8226; MDA-MB-231; A549; OVCAR-8; SF-268; SK-OV-3; IGROV-1; UACC-62; HOP-92; OVCAR-4; HCT-116; BT-549; MCF7; NCI-H522; HL-60; SW-620; EKVX; M14.
What all share (experiment): NCI tumour cell line growth inhibition, 48 h

We go through eleven molecules from ChEMBL document CHEMBL1201862, “PubChem BioAssay data set” (2004).

Structures are written as SMILES.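 Each compound was tested at five concentrations against cells in 96-well plates for 48 hours. GI50 is the concentration that inhibits growth by half.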 The source made the active and inactive calls. Rule as the data show it: active = GI50 up to about 1.1 µM and inactive = higher.

On to `NC1CCC(N(CC(=O)O)CC(=O)O)C(N(CC(=O)O)CC(=O)O)C1` (stereo unspecified), for which the GI50 with SF-539, in the assay with RPMI-8226, in the assay with MDA-MB-231, with A549, in the assay with OVCAR-8 and with SF-268 was > 100 µM (inactive) each time. Also, the GI50 in the assay on SK-OV-3, in the assay with IGROV-1, in the assay on UACC-62, with HOP-92, with OVCAR-4 and in the assay on HCT-116 was > 100 µM (inactive) throughout. The GI50 in the assay on BT-549, with MCF7, in the assay with NCI-H522, in the assay on HL-60 and with SW-620 was > 100 µM (inactive) each time.
With `Nc1c2ccccc2nc2ccc3c(=O)cc(-c4ccccc4)oc3c12`, the GI50 in the assay with SF-539 is 1.33 µM (inactive); in the assay on RPMI-8226 it was 0.473 µM (active); with EKVX it was 1.34 µM (inactive); in the assay with MDA-MB-231, 1.14 µM (inactive); with M14, 1.21 µM (inactive); with A549 it was 1.4 µM (inactive). Also, the GI50 with OVCAR-8 was 0.611 µM (active); in the assay on SF-268, 1.22 µM (inactive); in the assay with SK-OV-3 it was 1.83 µM (inactive); in the assay on IGROV-1, 1.12 µM (inactive); with UACC-62, 1.6 µM (inactive); in the assay with HOP-92, 1.24 µM (inactive). Also, the GI50 is 0.426 µM (active) in the assay with OVCAR-4; 0.299 µM (active) in the assay on HCT-116; 2.8 µM (inactive) with BT-549; 0.649 µM (active) in the assay with MCF7; 1.25 µM (inactive) in the assay with NCI-H522; 0.977 µM (active) in the assay with HL-60. In the assay on SW-620, the GI50 was 0.327 µM (active).
`COc1ccccc1NC(=O)CC(=O)NN`: the GI50 in the assay on SF-539, in the assay on RPMI-8226, with EKVX, with MDA-MB-231, with A549 and in the assay on OVCAR-8 was > 100 µM (inactive) throughout. Moreover, the GI50 in the assay on SF-268, in the assay with SK-OV-3, in the assay with IGROV-1, in the assay with UACC-62, with HOP-92 and in the assay on OVCAR-4 was > 100 µM (inactive) in each case. For the same molecule, the GI50 in the assay on HCT-116, in the assay on BT-549, with MCF7, in the assay on NCI-H522, with HL-60 and in the assay with SW-620 was > 100 µM (inactive) in each case.
Regarding `CC(C)=CCC/C(C)=C/CC/C(C)=C/CC/C(C)=C/C=C/C=C(\C)CC/C=C(\C)CC/C=C(\C)CCC=C(C)C`, the GI50 with SF-539 is > 100 µM (inactive); with RPMI-8226, 38.4 µM (inactive); with EKVX it was 32.3 µM (inactive); in the assay with MDA-MB-231, > 70.5 µM (inactive); in the assay with M14 it was > 100 µM (inactive); with A549, 60 µM (inactive). The GI50 with OVCAR-8 was > 63 µM (inactive); in the assay with SF-268, > 58.7 µM (inactive); with SK-OV-3 it was > 100 µM (inactive); in the assay on IGROV-1, 17.5 µM (inactive); in the assay on UACC-62, > 100 µM (inactive); with HOP-92 it was 45.5 µM (inactive). Moreover, the GI50 is > 57.4 µM (inactive) in the assay with OVCAR-4; > 92.5 µM (inactive) in the assay with HCT-116; > 100 µM (inactive) with BT-549; 44.2 µM (inactive) with MCF7; 14.8 µM (inactive) in the assay with NCI-H522; 3.02 µM (inactive) with HL-60. The GI50 in the assay with SW-620 is > 100 µM (inactive).
On to `Cn1c(=O)c2c(nc3n(C)c(=O)c4ccccc4n23)n(C)c1=O`, for which the GI50 with SF-539 is 34.8 µM (inactive); in the assay with RPMI-8226 it was 20.7 µM (inactive); with EKVX it was > 100 µM (inactive); in the assay with MDA-MB-231 it was > 100 µM (inactive); in the assay on M14 it was > 96.6 µM (inactive); in the assay with A549, 9.98 µM (inactive). Besides, the GI50 in the assay with OVCAR-8 is 33 µM (inactive); with SF-268, 68.5 µM (inactive); in the assay on SK-OV-3, 37.8 µM (inactive); in the assay with IGROV-1, > 95.9 µM (inactive); with UACC-62 it was 28.9 µM (inactive); with HOP-92 it was 43.6 µM (inactive). Also, the GI50 in the assay with OVCAR-4 was > 100 µM (inactive); in the assay with HCT-116 it was 71 µM (inactive); in the assay with BT-549, > 80.4 µM (inactive); in the assay with MCF7 it was 17.9 µM (inactive); in the assay with NCI-H522, 25.1 µM (inactive); with HL-60 it was 24 µM (inactive). Moreover, the GI50 in the assay on SW-620 was 42.2 µM (inactive).
In the case of `O=C(c1c(F)c(F)c(F)c(F)c1F)N1CCN(C(=O)c2c(F)c(F)c(F)c(F)c2F)C1=S`, the GI50 was 10.8 µM (inactive) in the assay with SF-539; 2.43 µM (inactive) with RPMI-8226; 13 µM (inactive) in the assay on EKVX; 6.75 µM (inactive) with MDA-MB-231; 1.56 µM (inactive) in the assay on M14; 14.4 µM (inactive) with A549. For the same molecule, the GI50 with OVCAR-8 was 5.05 µM (inactive); with SF-268, 11.3 µM (inactive); in the assay with SK-OV-3, 5.05 µM (inactive); with IGROV-1, 4.4 µM (inactive); in the assay on UACC-62 it was 4.5 µM (inactive); with HOP-92, 3.89 µM (inactive). The GI50 is 5.22 µM (inactive) in the assay with OVCAR-4; 2.84 µM (inactive) with HCT-116; 13.6 µM (inactive) in the assay on BT-549; 5.43 µM (inactive) in the assay with MCF7; 0.582 µM (active) in the assay on NCI-H522; 1.07 µM (active) with HL-60. Besides, in the assay with SW-620, the GI50 was 1.84 µM (inactive).
On to `COc1cc2c(cc1OC)C(=O)N(c1ccc(O)cc1)C2=O`, for which the GI50 with SF-539, in the assay with RPMI-8226, with EKVX, with MDA-MB-231, in the assay on M14 and with A549 was > 100 µM (inactive) each time. Moreover, the GI50 in the assay on OVCAR-8, in the assay with SF-268, in the assay with SK-OV-3, with IGROV-1, in the assay with UACC-62 and in the assay with HOP-92 was > 100 µM (inactive) throughout. The GI50 in the assay with OVCAR-4 was > 100 µM (inactive); in the assay on HCT-116, > 100 µM (inactive); in the assay on BT-549, > 100 µM (inactive); with MCF7, < 0.01 µM (active); in the assay with NCI-H522, > 100 µM (inactive); in the assay on HL-60, > 100 µM (inactive). The GI50 with SW-620 is > 100 µM (inactive).
With `CC(C)NC(NC(C)C)=C(S(=O)(=O)C(F)(F)C(F)(F)C(F)(F)C(F)(F)F)S(=O)(=O)C(F)(F)C(F)(F)C(F)(F)C(F)(F)F`, the GI50 in the assay on SF-539, with RPMI-8226, in the assay on EKVX, in the assay with MDA-MB-231, with M14 and with A549 was > 100 µM (inactive) throughout. The GI50 with OVCAR-8, in the assay on SF-268, with SK-OV-3, with IGROV-1, with UACC-62 and in the assay on HOP-92 was > 100 µM (inactive) in each case. For the same molecule, the GI50 is > 100 µM (inactive) with OVCAR-4; > 100 µM (inactive) in the assay with HCT-116; 90.8 µM (inactive) in the assay on BT-549; > 100 µM (inactive) in the assay on MCF7; > 100 µM (inactive) in the assay with NCI-H522; > 100 µM (inactive) with HL-60. Moreover, in the assay with SW-620, the GI50 is > 100 µM (inactive).
For `Cc1ccn2c(=O)cc(CN3CCOCC3)nc2c1`, the GI50 in the assay with SF-539, in the assay on RPMI-8226, in the assay on EKVX, with MDA-MB-231, with M14 and in the assay on A549 was > 100 µM (inactive) throughout. Also, the GI50 is > 100 µM (inactive) in the assay on OVCAR-8; > 100 µM (inactive) in the assay on SF-268; > 100 µM (inactive) with SK-OV-3; > 100 µM (inactive) with IGROV-1; 58.1 µM (inactive) in the assay with UACC-62; > 100 µM (inactive) in the assay with HOP-92. Also, the GI50 with OVCAR-4, in the assay with HCT-116, in the assay with BT-549, with MCF7, with NCI-H522 and with HL-60 was > 100 µM (inactive) throughout. Besides, the GI50 in the assay with SW-620 is > 100 µM (inactive).
In the case of `CCN1CCN(c2nc3ccccc3c3c2CCOc2ccccc2-3)CC1`, the GI50 was > 46.2 µM (inactive) in the assay on SF-539; 19.8 µM (inactive) in the assay with RPMI-8226; > 100 µM (inactive) with EKVX; 23.5 µM (inactive) in the assay on MDA-MB-231; 18.5 µM (inactive) in the assay with M14; 45.8 µM (inactive) in the assay with A549. Besides, the GI50 in the assay with OVCAR-8 is > 45.1 µM (inactive); in the assay on SF-268 it was 39.1 µM (inactive); in the assay on SK-OV-3 it was > 47.8 µM (inactive); in the assay on IGROV-1 it was 22.2 µM (inactive); in the assay with UACC-62, 17.7 µM (inactive); in the assay on HOP-92, 28.8 µM (inactive). Also, the GI50 with OVCAR-4 is > 53.2 µM (inactive); with HCT-116, 29.3 µM (inactive); in the assay on BT-549, > 100 µM (inactive); with MCF7, > 39.8 µM (inactive); in the assay with NCI-H522, 26.4 µM (inactive); in the assay with HL-60 it was 1.05 µM (active). In addition, the GI50 in the assay on SW-620 is 24.9 µM (inactive).
With `O=C1C(SCCO)=C(SCCO)C(=O)c2ccccc21`, the GI50 with SF-539 was 0.745 µM (active); in the assay with RPMI-8226 it was 0.865 µM (active); in the assay with EKVX, 1.6 µM (inactive); in the assay on MDA-MB-231, 1.48 µM (inactive); in the assay on M14 it was 0.815 µM (active); in the assay with A549 it was 1.29 µM (inactive). The GI50 with OVCAR-8 is 0.579 µM (active); in the assay with SF-268, 1.56 µM (inactive); with SK-OV-3, 1.66 µM (inactive); with IGROV-1, 0.467 µM (active); in the assay with UACC-62, 1.44 µM (inactive); in the assay with HOP-92, 0.805 µM (active). Further, the GI50 in the assay with OVCAR-4 was 0.252 µM (active); with HCT-116 it was 1.86 µM (inactive); in the assay with BT-549, 1.43 µM (inactive); in the assay with MCF7 it was 0.791 µM (active); in the assay on NCI-H522 it was 1.86 µM (inactive); in the assay with HL-60 it was 1.17 µM (inactive). Besides, in the assay with SW-620, the GI50 is 0.695 µM (active).
